Legend:
Erk1 = Erk1 (Homo sapiens (Human), UniProt P27361); test: Protein Mass Modification Assay (intact protein MALDI); format: binding
Summary of the method: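 Percent covalent modification comes from the intact-protein MALDI centroid mass shift, treated versus control, divided by compound MW. Before analysis, human Erk1 was exposed to compound at 10-fold excess over protein for 60 min at room temperature.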

MEK1 activated ERK1 = MEK1 activated ERK1 (Homo sapiens (Human), UniProt P27361); test: Omnia continuous-read kinase assay for potency against MEK1 activated ERK1; format: biochemical; settings: MEK1 activated ERK1, WT, ATP at KM
Sequence of MEK1 activated ERK1 (P27361 whole entry): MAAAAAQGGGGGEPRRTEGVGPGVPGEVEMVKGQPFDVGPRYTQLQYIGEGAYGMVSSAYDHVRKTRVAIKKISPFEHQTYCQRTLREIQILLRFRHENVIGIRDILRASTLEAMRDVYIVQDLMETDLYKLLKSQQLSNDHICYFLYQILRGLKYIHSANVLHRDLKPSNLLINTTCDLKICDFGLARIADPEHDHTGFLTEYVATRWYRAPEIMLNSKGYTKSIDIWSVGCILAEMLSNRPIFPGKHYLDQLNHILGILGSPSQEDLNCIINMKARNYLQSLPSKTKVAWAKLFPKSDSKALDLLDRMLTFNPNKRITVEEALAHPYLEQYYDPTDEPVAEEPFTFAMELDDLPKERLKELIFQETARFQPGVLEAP
Excerpt: Omnia Assay Protocol for Potency Assessment Against MEK1 Activated ERK1:
The protocol below describes continuous-read kinase assays to measure potency of compounds against activated ERK1 enzyme. The mechanics of the assay platform are best described by the vendor (Invitrogen, Carlsbad, Calif.) on their website at the following URL: invitrogen.com/site/us/en/home.html.
Briefly, a 1.25× stock of ERK1 enzyme (14-439-K) from Millipore (Billerica, Mass.), 5×ATP (AS001A) and ST17-Sox conjugated peptide substrate (KNZ1171C) were prepared in 1× kinase reaction buffer consisting of 20 mM Tris, pH 7.5, 5 mM MgCl2, 1 mM EGTA, 5 mM β-glycerophosphate, 5% glycerol (10× stock, KB002A) and 0.2 mM DTT. 10 μL of ATP/ST17-sox peptide substrate mix was combined with 0.5 μL volume of 100% DMSO and serially diluted compounds were prepared in 100% DMSO in a Corning (#3574) 384-well, white, non-binding surface microtiter plate (Corning, N.Y.). Kinase reactions were started with the addition of 40 μL of ERK1 solution and monitored every 71 seconds for 30-240 minutes at λex360/λem485 in a Synergy plate reader from BioTek (Winooski, Vt.). At the conclusion of each assay, progress curves from each well were examined for linear reaction kinetics and fit statistics (R^2, 95% confidence interval, absolute sum of squares). Initial velocity (0 minutes to ˜30+ minutes) from each reaction was determined from the slope of a plot of relative fluorescence units vs time (minutes or seconds) and then plotted against inhibitor concentration to estimate ^AppIC50 from log [Inhibitor] vs Response, Variable Slope model in GraphPad Prism from GraphPad Software (San Diego, Calif.).
[Reagent] used in optimized protocol:
[ERK1]=4 nM, [ATP]=50 μM, [ST17-Sox]=10 μM (ATP ^appKM 48 μM)
The results of this assay show the degree of inhibition of ERK activity, which is a direct measurement of inhibition of ERK activity. Results from this assay are reported in Table A under the column “ERK1 Omnia WT ATP KM IC50 (nM).”

Sequence of Erk1 (P27361 whole entry, looked up): as the sequence (P27361 whole entry) above

| Compound | ERK1 Mass Mod (%) (Erk1) | IC50 (MEK1 activated ERK1) [nM] |
| --- | --- | --- |
| C=CC(=O)N[C@H]1CCCC1Nc1nc(N[C@H]2CCCN(C(C)=O)C2)ncc1C(F)(F)F (stereo in doubt) [Compound I-24, N-((1S,2S)-2-((2-(((S)-1-Acetylpiperidin-3-yl)amino)-5-(trifluoromethyl)pyrimidin-4-yl)amino)cyclopentyl)acrylamide] | G (proived a mass modification ≦30%) | > 1000 |
| C=CC(=O)Nc1ccccc1Nc1nc(N[C@@H]2CCC[C@H](C(N)=O)C2)ncc1C(F)(F)F [Compound I-7, (1S,3R)-3-((4-((2-acrylamidophenyl)amino)-5-(trifluoromethyl)pyrimidin-2-yl)amino)cyclohexanecarboxamide] | E (provided a mass modification of ≧70%) | < 100 |
| C=CC(=O)Nc1ccccc1Nc1nc(N[C@H]2CCCN(C=O)C2)ncc1C(F)(F)F [Compound I-9, (S)—N-(2-((2-((1-formylpiperidin-3-yl)amino)-5-(trifluoromethyl)pyrimidin-4-yl)amino)phenyl)acrylamide] | E (provided a mass modification of ≧70%) | < 100 |
| C=CC(=O)Nc1ccccc1Nc1nc(N[C@H]2CCCN(C(C)=O)C2)ncc1C(F)(F)F [Compound I-10, (S)—N-(2-(2-(1-acetylpiperidin-3-ylamino)-5-(trifluoromethyl)pyrimidin-4-ylamino)phenyl)acrylamide] | E (provided a mass modification of ≧70%) | < 100 |
| C=CC(=O)Nc1ccccc1Nc1nc(NC2CCN(S(C)(=O)=O)CC2)ncc1C(F)(F)F [Compound I-13, N-(2-((2-((1-(methylsulfonyl)piperidin-4-yl)amino)-5-(trifluoromethyl)pyrimidin-4-yl)amino)phenyl)acrylamide] | E (provided a mass modification of ≧70%) | < 100 |
| C=CC(=O)Nc1ccccc1Nc1nc(N[C@H]2CCCN(C(=O)OC)C2)ncc1C(F)(F)F [Compound I-17, (S)-Methyl 3-((4-((2-acrylamidophenyl)amino)-5-(trifluoromethyl)pyrimidin-2-yl)amino) piperidine-1-carboxylate] | F (provided a mass modification of 31-69%) | < 100 |
| C=CC(=O)Nc1ccccc1Nc1nc(N[C@H]2CCCN(C(N)=O)C2)ncc1C(F)(F)F [Compound I-18, (S)-3-((4-((2-Acrylamidophenyl)amino)-5-(trifluoromethyl)pyrimidin-2-yl)amino)piperidine-1-carboxamide] | E (provided a mass modification of ≧70%) | < 100 |
| C=CC(=O)Nc1cc(C)ccc1Nc1nc(N[C@H]2CCCN(C(C)=O)C2)ncc1C(F)(F)F [Compound I-19, (S)—N-(2-((2-((1-Acetylpiperidin-3-yl)amino)-5-(trifluoromethyl)pyrimidin-4-yl)amino)-5-methylphenyl)acrylamide] | E (provided a mass modification of ≧70%) | < 100 |
| C=CC(=O)Nc1cc(C)ccc1Nc1nc(N[C@H]2CCCN(C(=O)CO)C2)ncc1C(F)(F)F [Compound I-20, (S)—N-(2-((2-((1-(2-Hydroxyacetyl)piperidin-3-yl)amino)-5-(trifluoromethyl)pyrimidin-4-yl)amino)-5-methylphenyl)acrylamide] | E (provided a mass modification of ≧70%) | < 100 |
| N#CNC(=O)c1ccccc1Nc1nc(N[C@H]2CCCN(C(=O)CO)C2)ncc1C(F)(F)F [Compound I-26, (S)—N-Cyano-2-((2-((1-(2-hydroxyacetyl)piperidin-3-yl)amino)-5-(trifluoromethyl)pyrimidin-4-yl)amino)benzamide] | G (proived a mass modification ≦30%) | > 1000 |
| CC#CC(=O)Nc1ccccc1Nc1nc(N[C@H]2CCCN(C(=O)CO)C2)ncc1C(F)(F)F [Compound I-29, (S)—N-(2-((2-((1-(2-Hydroxyacetyl)piperidin-3-yl)amino)-5-(trifluoromethyl)pyrimidin-4-yl)amino)phenyl)but-2-ynamide] | G (proived a mass modification ≦30%) | > 1000 |
| CCC(=O)Nc1ccccc1Nc1nc(N[C@H]2CCCN(C(=O)CO)C2)ncc1Cl [Compound I-311, (S)—N-(2-((5-chloro-2-((1-(2-hydroxyacetyl)piperidin-3-yl)amino)pyrimidin-4-yl)amino)phenyl)propionamide] | – | < 100 |
| C#CC(=O)Nc1cc(C)ccc1Nc1nc(Nc2cc(OC)ncc2C)ncc1C(F)(F)F [Compound I-345, N-(2-((2-((2-methoxy-5-methylpyridin-4-yl)amino)-5-(trifluoromethyl)pyrimidin-4-yl)amino)-5-methylphenyl)propiolamide] | E (provided a mass modification of ≧70%) | – |
| C=CC(=O)Nc1cc(C)ccc1Nc1nc(Nc2nc(OC)ncc2C#N)ncc1C(F)(F)F [Compound I-346, N-(2-((2-((5-cyano-2-methoxypyrimidin-4-yl)amino)-5-(trifluoromethyl)pyrimidin-4-yl)amino)-5-methylphenyl)acrylamide] | E (provided a mass modification of ≧70%) | – |
| C=CC(=O)Nc1cc(C)ccc1Nc1nc(Nc2nc(OC)ncc2OC)ncc1C(F)(F)F [Compound I-349, N-(2-((2-((2,5-dimethoxypyrimidin-4-yl)amino)-5-(trifluoromethyl)pyrimidin-4-yl)amino)-5-methylphenyl)acrylamide] | E (provided a mass modification of ≧70%) | – |
| C=CC(=O)Nc1cc(C)ccc1Nc1nc(Nc2cnc(OC)cc2C)ncc1C(F)(F)F [Compound I-350, N-(2-((2-((6-methoxy-4-methylpyridin-3-yl)amino)-5-(trifluoromethyl)pyrimidin-4-yl)amino)-5-methylphenyl)acrylamide] | F (provided a mass modification of 31-69%) | – |
| C=CC(=O)Nc1cc(C)ccc1Nc1nc(Nc2cc(OC)ncc2Cl)ncc1C(F)(F)F [Compound I-351, N-(2-((2-((5-chloro-2-methoxypyridin-4-yl)amino)-5-(trifluoromethyl)pyrimidin-4-yl)amino)-5-methylphenyl)acrylamide] | F (provided a mass modification of 31-69%) | – |
| C=CC(=O)Nc1cc(C)ccc1Nc1nc(Nc2ncc(C(F)(F)F)c(OC)n2)ncc1C(F)(F)F [Compound I-354, N-(2-((2-((4-methoxy-5-(trifluoromethyl)pyrimidin-2-yl)amino)-5-(trifluoromethyl)pyrimidin-4-yl)amino)-5-methylphenyl)acrylamide] | E (provided a mass modification of ≧70%) | – |
| C=CC(=O)Nc1cc(C)ccc1Nc1nc(Nc2nc(OC)ncc2F)ncc1C(F)(F)F [Compound I-357, N-(2-((2-((5-fluoro-2-methoxypyrimidin-4-yl)amino)-5-(trifluoromethyl)pyrimidin-4-yl)amino)-5-methylphenyl)acrylamide] | E (provided a mass modification of ≧70%) | – |
| C=CC(=O)Nc1cc(C)ccc1Nc1nc(Nc2cc(OCC)ncc2C)ncc1C(F)(F)F [Compound I-358, N-(2-((2-((2-ethoxy-5-methylpyridin-4-yl)amino)-5-(trifluoromethyl)pyrimidin-4-yl)amino)-5-methylphenyl)acrylamide] | E (provided a mass modification of ≧70%) | – |
| C=CC(=O)Nc1cc(C)ccc1Nc1nc(Nc2cc(OCCOC)ncc2C)ncc1C(F)(F)F [Compound I-359, N-(2-((2-((2-(2-methoxyethoxy)-5-methylpyridin-4-yl)amino)-5-(trifluoromethyl)pyrimidin-4-yl)amino)-5-methylphenyl)acrylamide] | E (provided a mass modification of ≧70%) | – |
| C=CC(=O)Nc1cc(C)c(F)cc1Nc1nc(Nc2cc(OC)ncc2C)ncc1C(F)(F)F [Compound I-366, N-(4-fluoro-2-((2-((2-methoxy-5-methylpyridin-4-yl)amino)-5-(trifluoromethyl)pyrimidin-4-yl)amino)-5-methylphenyl)acrylamide] | E (provided a mass modification of ≧70%) | – |
| C=CC(=O)Nc1c(Nc2nc(Nc3cc(OC)ncc3C)ncc2C(F)(F)F)ccc(C)c1F [Compound I-367, N-(2-fluoro-6-((2-((2-methoxy-5-methylpyridin-4-yl)amino)-5-(trifluoromethyl)pyrimidin-4-yl)amino)-3-methylphenyl)acrylamide] | E (provided a mass modification of ≧70%) | – |

From US9796700B2 (Celgene CAR LLC, priority 2013, dated 2017)
